{"source": "patent US20100204258A1", "about": "“METHODS AND COMPOSITIONS FOR MODULATING INSULIN SECRETION AND GLUCOSE METABOLISM” (The Trustees of Columbia University in the City of New York, priority 2007, published 2010)", "key": {"[1]": {"tested_on": "Lewis rats", "experiment": "IPGTT after 2 mg/kg i.v. of VMAT2 ligands (FIG. 10)", "type": "in vivo, rat", "conditions": "2 mg/kg body weight i.v.; for blood glucose levels during IPGTT: around sixty minutes following glucose challenge; for area under the curve in the IPGTT: following glucose challenge; for blood glucose excursion during IPGTT: vs vehicle (DMSO)", "description": "Experimental animals. All animal studies were conducted as described in Example 1.\nAnaesthetized rats were administered TBZ, THB, butamol, reserpine, emetine, or Compound 6 at a dose of approximately 2-3 mg/kg body weight by intravenous (i.v.) injection using the penile vein. TBZ, THB, butamol, reserpine, emetine, and Compound 6 were each separately dissolved in neat sterile dimethylsulfoxide (DMSO) and diluted (always more than 10 fold) in sterile saline. Rats received injections of vehicle alone (10% DMSO in saline) or reserpine (in saline). Animals recovered fully before receiving IPGTT.\n(§1) Blood glucose, insulin, glucagon and intraperitoneal glucose tolerance tests measurements. Blood samples were collected from a superficial blood vessel in the tails of the rats following 6 hours of fasting between 12:00 noon and 2:00 p.m. The fasting blood glucose (BG) levels of the rats were measured using an Accu-Check blood glucose monitoring system (Roche Diagnostics, Sommerville, N.J.). Intraperitoneal glucose tolerance tests (IPGTT) were performed in 6 hour fasting un-anaesthetized animals. Briefly, after baseline BG measurements, animals received an intraperitoneal (i.p.) injection of 1 gram glucose/kilogram body weight. To minimize stress during the procedure, rats were handled by the same operator during acclimatization and later during weighing and IPGTT. Blood samples (approximately 30 μl) were collected at baseline and then again 15, 30, 45, 60, 90, and 120 minutes following i.p. glucose. BG concentrations were measured immediately on these samples and the remainder processed."}, "[2]": {"tested_on": "human islets", "experiment": "Glucose-stimulated insulin secretion of purified human cadaveric islets ex vivo", "type": "cell-based", "conditions": "stimulation by high concentrations of glucose", "description": "Human islet tissue and glucose-stimulated insulin secretion. The islet tissue used in these studies was obtained with institutional review board approval. Pancreas digestion and islet isolation were performed using minor modifications of the Edmonton purification protocol. (Shapiro, […] al. “Islet […] in seven patients with type I diabetes mellitus using a glucocortoid-free immunosuppressive regimen.” New England Journal of Medicine 343(4):230-8, (2000)) The determination of islet cell mass, viability, and purity were also performed. Purified islets were cultured in CMRL 1066 culture media with 10% fetal bovine serum at 37° C. in humidified air (5% CO2) for 18 to 24 hours. The human islet insulin secretory response was performed according to a procedure described by the Edmonton group. (Id.) Briefly, after an overnight culture, islets were incubated with either low or high concentrations of glucose for 2 hours at 37° C. and 5% CO2. The supernatant was collected for insulin measurement. Insulin concentrations in these experiments were analyzed with a human insulin enzyme-linked immunosorbent assay (ELISA) kit (ALPCO Insulin ELISA kit, Windham, N.H.). In some experiments TBZ, DTBZ or epinephrine was added to the cultures before glucose stimulation."}, "[3]": {"tested_on": "Lewis rats", "experiment": "Intraperitoneal glucose tolerance test (IPGTT) in normal Lewis rats after a single i.v. dose", "type": "in vivo, rat", "conditions": "25 μg/gbm, single concentration; data not shown", "description": "Experimental animals. All animal studies were reviewed and approved by the Institutional Animal Care and Use Committee (IACUC) at Columbia University's Medical School. All experiments were performed in accordance with the IACUC approved procedures. Normal male Lewis rats (100-400 grams) were obtained from Taconic (Taconic Inc., Germantown, N.Y.) and were housed under conditions of controlled humidity (55±5%), temperature (23±1° C.), and lighting (light on: 06.00-18.00 hours) with free access to standard laboratory rat chow and water. Rats were handled daily to minimize nonspecific stress for more than 7 days before the experiments began. In most experiments, it was necessary to measure blood glucose in fasting animals. For these groups, food was removed at the beginning of the light cycle, 6 hours before glucose levels were measured. Diabetes mellitus was induced by intraperitoneal injection of streptozotocin (Sigma Chemical Co., St. Louis, Mo.) (25 to 50 mg/kg) to animals (100 to 150 grams) that had been fasted 4 hours to enhance the effectiveness of STZ treatment.\nThe STZ solution was prepared fresh by dissolving it in 0.1 M citrate buffer (pH 5.5) and terminally sterile filtered. Control Lewis age and weight matched rats received a 0.5 ml/kg citrate vehicle alone via intraperitoneal injection. Sixty minutes prior to intraperitoneal glucose tolerance testing (IPGTT), anesthesia of male Lewis rats was induced with isoflurane (3-4% in oxygen) and maintained with 1-2% isoflurane in oxygen. Anaesthetized rats were administered TBZ at the indicated dose by intravenous (i.v.) injection using the penile vein. TBZ was dissolved in neat sterile dimethylsulfoxide (DMSO) and diluted (always more than 10 fold) in sterile saline. Rats received injections of vehicle alone (10% DMSO in saline) or reserpine (in saline). Animals recovered fully before receiving IPGTT.\nas §1, with “30,” for “30, 45,”, “glucose administration.” for “glucose.”\nPlasma was immediately separated by centrifugation at 3000×g for 15 minutes and then stored at −20° C. until analysis. Insulin and glucagon concentration measurements in rat plasma were performed by ELISA as per the manufacturer's instructions using kits from Linco Research Inc. (St. Charles, Mo.) and Alpco Diagnostics (Salem, N.H.), respectively. To validate the test, saline injections were performed by the same method. […] The area under the IPGTT glucose concentration×time curve (AUCIPGTT) was calculated by the trapezoidal rule. The area under the insulin or glucagon concentration×time curve (AUC INS or AUC GCG) was calculated in a similar manner."}, "[4]": {"tested_on": "Lewis rats", "experiment": "IPGTT with TBZ, emetine and Compound 6 (FIG. 12)", "type": "in vivo, rat", "conditions": "single dose 2-3 mg/kg body weight; for area under the curve from IPGTT: separate experiments", "description": "as §1, with “Experimental animals. All animal studies were conducted as described in Example 1. […] Rats received injections of vehicle alone (10% DMSO in saline) or reserpine (in saline). Animals recovered fully before receiving IPGTT. Blood glucose,” for “Blood glucose,”, “tests measurements. […] The fasting” for “tests measurements. Blood samples were collected from a superficial blood vessel in the tails of the rats following 6 hours of fasting between 12:00 noon and 2:00 p.m. The fasting”"}}, "note": "Entries after “also recorded” stand apart in the source; their conditions may differ.", "data": [{"smiles": "CC(C)(C)NCC(O)c1ccc(O)c(CO)c1", "note": "(stereo not drawn) [butamol]", "values": [{"measurement": "blood glucose levels during IPGTT", "setting": "[1]", "value": "returned to control or near normal levels"}, {"measurement": "area under the curve in the IPGTT", "setting": "[1]", "value": "smaller area under the curve"}, {"measurement": "blood glucose excursion during IPGTT", "setting": "[1]", "value": "does not reduce the blood glucose excursion; also recorded: did not reduce the blood glucose excursion"}]}, {"smiles": "COc1cc2c(cc1OC)[C@H]1C[C@@H](O)[C@H](CC(C)C)CN1CC2", "note": "[DTBZ, dihydrotetrabenazine]", "values": [{"measurement": "insulin secreted by human islets in culture", "setting": "[2]", "value": "enhances glucose-stimulated insulin secretion; also recorded: significantly enhanced"}]}, {"smiles": "COC(=O)[C@H]1[C@H]2C[C@@H]3c4[nH]c5cc(OC)ccc5c4CCN3C[C@H]2C[C@@H](OC(=O)c2cc(OC)c(OC)c(OC)c2)[C@@H]1OC", "note": "[reserpine]", "values": [{"measurement": "blood glucose levels during IPGTT", "setting": "[1]", "value": "returned to control or near normal levels"}, {"measurement": "area under the curve in the IPGTT", "setting": "[1]", "value": "smaller area under the curve"}, {"measurement": "blood glucose excursion during IPGTT", "setting": "[1]", "value": "reduced the blood glucose excursion"}, {"measurement": "AUC IPGTT relative to untreated controls", "setting": "[3]", "value": "larger AUC IPGTT"}, {"measurement": "blood glucose in IPGTT", "setting": "[3]", "value": "persistent hyperglycemia"}]}, {"smiles": "CNC[C@H](O)c1ccc(O)c(O)c1", "note": "[epinephrine, L-epinephrine bitartrate]", "values": [{"measurement": "insulin secreted by human islets in culture", "setting": "[2]", "value": "inhibited secretion of insulin"}]}, {"smiles": "COc1cc2c(cc1OC)C1CC(N)C(CC(C)C)CN1CC2", "note": "(stereo not drawn) [Compound 6, 3-isobutyl-9,10-dimethoxy-2,3,4,6,7,11b-hexahydro-1H-pyrido[2,1-a]isoquinolin-2-amine]", "values": [{"measurement": "blood glucose excursion during IPGTT", "setting": "[4]", "value": "consistently reduced the blood glucose excursion"}, {"measurement": "area under the curve from IPGTT", "setting": "[4]", "value": "depress the area under the curve; also recorded: consistently suppressed the area under the curve"}]}, {"smiles": "COc1ccc2c(c1OC)CN1CCc3cc4c(cc3C1C2)OCO4", "note": "(stereo not drawn) [THB, tetrahydroberberine]", "values": [{"measurement": "blood glucose levels during IPGTT", "setting": "[1]", "value": "returned to control or near normal levels"}, {"measurement": "area under the curve in the IPGTT", "setting": "[1]", "value": "smaller area under the curve"}, {"measurement": "blood glucose excursion during IPGTT", "setting": "[1]", "value": "reduced the blood glucose excursion"}]}, {"smiles": "CC[C@H]1CN2CCc3cc(OC)c(OC)cc3[C@@H]2C[C@@H]1C[C@H]1NCCc2cc(OC)c(OC)cc21", "note": "[emetine]", "values": [{"measurement": "blood glucose levels during IPGTT", "setting": "[1]", "value": "returned to control or near normal levels"}, {"measurement": "area under the curve in the IPGTT", "setting": "[1]", "value": "smaller area under the curve"}, {"measurement": "blood glucose excursion during IPGTT", "setting": "[1]", "value": "reduced the blood glucose excursion"}, {"measurement": "blood glucose excursion during IPGTT", "setting": "[4]", "value": "consistently reduced the blood glucose excursion"}, {"measurement": "area under the curve from IPGTT", "setting": "[4]", "value": "consistently suppressed the area under the curve"}, {"measurement": "area under the curve from IPGTT", "setting": "[4]; listed as emitine", "value": "depress the area under the curve"}]}]}
